Test results: ChEMBL document CHEMBL1201862, “PubChem BioAssay data set” (2004)
The source made the active and inactive calls.

Assays:
Cytochrome P450 2C9 = Cytochrome P450 2C9 (Homo sapiens, UniProt P11712); settings: Potency
[1] = target: Cyclin-dependent kinase 5/CDK5 activator 1 (Homo sapiens, UniProt Q00535); experiment: CDK5/p35 kinase inhibitors, dose response, biochemical, cherry-picked samples, set 2 (AID 504545)
[2] = target: T1, Neuropeptides B/W receptor type 1 (Homo sapiens, UniProt P48145); experiment: Fluorescence-based dose response cell-based high throughput screening assay to identify antagonists of the G-protein coupled receptor 7 (GPR7). [Related pubchem assays: 1952 (Screening assay (GPR7 antagonists).), 1880 (Summary AID.)]; type: functional
T1 sequence (P48145 whole entry): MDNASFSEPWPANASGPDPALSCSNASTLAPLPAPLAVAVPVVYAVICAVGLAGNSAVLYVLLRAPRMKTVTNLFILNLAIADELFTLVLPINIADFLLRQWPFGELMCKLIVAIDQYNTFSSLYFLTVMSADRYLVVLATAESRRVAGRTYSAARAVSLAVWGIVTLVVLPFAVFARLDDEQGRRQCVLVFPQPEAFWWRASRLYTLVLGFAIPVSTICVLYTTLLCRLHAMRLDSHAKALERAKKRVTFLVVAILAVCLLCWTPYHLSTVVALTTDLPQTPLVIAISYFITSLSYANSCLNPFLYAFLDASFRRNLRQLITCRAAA

[3] = target: T2, Corticotropin-releasing factor receptor 2/Corticotropin-releasing factor-binding protein (Homo sapiens, UniProt P24387+Q13324); experiment: activators of CRF receptor 2 with binding protein – uHTS hits, confirmation (AID 602473); type: functional; settings: read-out: EC50_Mean
T2 sequence (Q13324 whole entry): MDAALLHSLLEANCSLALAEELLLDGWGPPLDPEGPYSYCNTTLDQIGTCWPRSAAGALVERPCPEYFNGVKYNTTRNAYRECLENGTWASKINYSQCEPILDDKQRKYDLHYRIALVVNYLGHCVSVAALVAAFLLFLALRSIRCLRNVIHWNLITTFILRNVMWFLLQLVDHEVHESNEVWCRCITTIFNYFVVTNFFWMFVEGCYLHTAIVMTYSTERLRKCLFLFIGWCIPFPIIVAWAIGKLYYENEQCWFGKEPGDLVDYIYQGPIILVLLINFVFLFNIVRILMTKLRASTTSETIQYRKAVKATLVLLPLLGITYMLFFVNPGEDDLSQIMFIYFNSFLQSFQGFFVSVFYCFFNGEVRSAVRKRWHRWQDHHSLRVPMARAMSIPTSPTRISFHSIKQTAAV
T2 sequence (P24387 whole entry): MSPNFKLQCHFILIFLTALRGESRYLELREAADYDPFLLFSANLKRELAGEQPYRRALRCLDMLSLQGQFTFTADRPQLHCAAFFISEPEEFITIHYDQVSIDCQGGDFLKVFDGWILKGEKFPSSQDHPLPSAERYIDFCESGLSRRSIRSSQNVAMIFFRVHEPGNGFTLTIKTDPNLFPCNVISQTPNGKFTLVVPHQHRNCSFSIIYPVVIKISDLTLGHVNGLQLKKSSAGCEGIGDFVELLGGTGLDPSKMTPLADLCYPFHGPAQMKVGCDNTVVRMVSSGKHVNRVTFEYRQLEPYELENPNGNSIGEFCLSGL

[4] = target: Melanin-concentrating hormone receptor 1 (Homo sapiens, UniProt Q99705); experiment: Fluorescence-based counterscreen for antagonists of the G-protein coupled receptor 7 (GPR7): cell-based high throughput dose response assay to identify antagonists of the melanin-concentrating hormone receptor 1 (MCHR1).; type: functional
Wee1-like protein kinase = Wee1-like protein kinase (Homo sapiens, UniProt P30291); experiment: G2/M cell cycle arrest in HeLa, late-stage follow-up, mechanism study for Wee1 degradation inhibitor project, FACS, panel member Wee1 Degradation (AID 2088)
[5] = target: G2/mitotic-specific cyclin-B1 (Homo sapiens, UniProt P14635); experiment: G2/M cell cycle arrest in HeLa, late-stage follow-up, mechanism study for Wee1 degradation inhibitor project, FACS, panel member Cyclin B Degradation (AID 2088)
Cytochrome P450 2D6 = Cytochrome P450 2D6 (Homo sapiens, UniProt P10635); experiment: qHTS Assay for Inhibitors and Substrates of Cytochrome P450 2D6. [Related pubchem assays: 410 ]; type: ADME; settings: read-out: Potency
Sequence of Cytochrome P450 2D6 (P10635 whole entry): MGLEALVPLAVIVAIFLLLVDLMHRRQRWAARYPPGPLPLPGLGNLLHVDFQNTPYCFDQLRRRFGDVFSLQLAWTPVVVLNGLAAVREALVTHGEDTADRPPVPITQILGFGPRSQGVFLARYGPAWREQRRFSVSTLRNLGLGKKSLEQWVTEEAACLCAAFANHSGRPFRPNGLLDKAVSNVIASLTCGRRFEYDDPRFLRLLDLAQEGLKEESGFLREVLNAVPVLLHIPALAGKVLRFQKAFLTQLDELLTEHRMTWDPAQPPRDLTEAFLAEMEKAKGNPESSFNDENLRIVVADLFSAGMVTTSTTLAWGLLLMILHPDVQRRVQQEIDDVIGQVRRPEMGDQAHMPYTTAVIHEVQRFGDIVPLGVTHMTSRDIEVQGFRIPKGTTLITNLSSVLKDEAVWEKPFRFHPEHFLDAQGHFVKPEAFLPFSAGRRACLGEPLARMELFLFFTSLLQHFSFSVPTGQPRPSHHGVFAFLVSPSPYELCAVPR

Sequence of Cytochrome P450 2C9 (P11712 whole entry): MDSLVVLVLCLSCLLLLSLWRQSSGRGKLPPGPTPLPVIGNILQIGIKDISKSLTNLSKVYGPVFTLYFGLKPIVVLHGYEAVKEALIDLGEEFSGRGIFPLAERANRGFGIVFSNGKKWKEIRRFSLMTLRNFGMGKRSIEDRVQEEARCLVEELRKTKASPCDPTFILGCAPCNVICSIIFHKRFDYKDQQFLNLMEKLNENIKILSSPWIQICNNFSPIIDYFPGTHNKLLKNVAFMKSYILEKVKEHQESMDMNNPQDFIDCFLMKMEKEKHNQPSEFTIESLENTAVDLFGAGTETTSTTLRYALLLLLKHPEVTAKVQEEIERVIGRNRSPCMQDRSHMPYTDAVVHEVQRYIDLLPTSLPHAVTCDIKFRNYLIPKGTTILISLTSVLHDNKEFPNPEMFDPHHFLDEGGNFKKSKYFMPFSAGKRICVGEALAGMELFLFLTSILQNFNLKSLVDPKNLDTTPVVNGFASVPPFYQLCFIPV
Sequence of Wee1-like protein kinase (P30291 whole entry): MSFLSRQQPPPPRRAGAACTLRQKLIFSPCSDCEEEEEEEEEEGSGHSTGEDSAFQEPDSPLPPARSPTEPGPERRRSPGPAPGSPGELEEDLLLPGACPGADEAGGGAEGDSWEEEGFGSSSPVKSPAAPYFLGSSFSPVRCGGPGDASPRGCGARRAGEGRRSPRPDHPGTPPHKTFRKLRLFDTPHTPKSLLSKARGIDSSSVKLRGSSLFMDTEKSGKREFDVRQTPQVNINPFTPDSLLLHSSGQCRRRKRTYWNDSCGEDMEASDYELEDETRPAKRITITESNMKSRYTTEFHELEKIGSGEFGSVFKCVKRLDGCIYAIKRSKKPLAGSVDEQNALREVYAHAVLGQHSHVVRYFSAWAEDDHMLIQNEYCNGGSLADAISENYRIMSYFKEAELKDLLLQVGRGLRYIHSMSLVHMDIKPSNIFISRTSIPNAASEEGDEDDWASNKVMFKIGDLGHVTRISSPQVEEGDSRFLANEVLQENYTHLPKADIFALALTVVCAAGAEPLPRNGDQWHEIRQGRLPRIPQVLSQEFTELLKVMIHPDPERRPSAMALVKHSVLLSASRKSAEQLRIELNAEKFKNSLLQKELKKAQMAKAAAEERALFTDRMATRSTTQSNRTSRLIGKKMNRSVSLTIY
Sequence of Melanin-concentrating hormone receptor 1 (Q99705 whole entry): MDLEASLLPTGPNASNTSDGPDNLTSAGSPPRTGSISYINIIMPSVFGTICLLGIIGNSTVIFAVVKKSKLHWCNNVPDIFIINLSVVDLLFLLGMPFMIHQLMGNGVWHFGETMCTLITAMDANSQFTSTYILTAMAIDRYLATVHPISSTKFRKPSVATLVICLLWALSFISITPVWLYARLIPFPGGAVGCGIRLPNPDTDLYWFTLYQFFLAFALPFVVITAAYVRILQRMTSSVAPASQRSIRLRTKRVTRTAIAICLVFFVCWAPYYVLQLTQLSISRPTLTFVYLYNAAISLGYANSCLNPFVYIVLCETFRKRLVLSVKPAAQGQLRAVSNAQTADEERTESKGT
Sequence of Cyclin-dependent kinase 5/CDK5 activator 1 (Q00535 whole entry): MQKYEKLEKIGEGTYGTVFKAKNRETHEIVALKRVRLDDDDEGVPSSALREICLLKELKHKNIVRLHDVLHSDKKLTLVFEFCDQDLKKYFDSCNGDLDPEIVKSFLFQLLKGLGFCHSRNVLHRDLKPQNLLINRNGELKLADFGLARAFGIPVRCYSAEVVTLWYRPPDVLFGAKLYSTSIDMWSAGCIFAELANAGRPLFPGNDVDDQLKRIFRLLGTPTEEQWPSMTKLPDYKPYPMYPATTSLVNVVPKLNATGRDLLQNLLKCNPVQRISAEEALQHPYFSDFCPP
Sequence of Cyclin-dependent kinase 5/CDK5 activator 1 (Q15078 whole entry, further chain): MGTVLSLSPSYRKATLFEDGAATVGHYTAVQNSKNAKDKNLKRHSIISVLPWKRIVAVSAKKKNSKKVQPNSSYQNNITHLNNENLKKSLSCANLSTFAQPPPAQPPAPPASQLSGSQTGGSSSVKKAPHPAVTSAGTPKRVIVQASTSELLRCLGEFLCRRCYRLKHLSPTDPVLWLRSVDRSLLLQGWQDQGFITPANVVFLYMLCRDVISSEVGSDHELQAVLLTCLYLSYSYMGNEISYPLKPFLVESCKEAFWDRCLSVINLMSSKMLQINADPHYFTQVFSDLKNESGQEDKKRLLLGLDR
Sequence of G2/mitotic-specific cyclin-B1 (P14635 whole entry): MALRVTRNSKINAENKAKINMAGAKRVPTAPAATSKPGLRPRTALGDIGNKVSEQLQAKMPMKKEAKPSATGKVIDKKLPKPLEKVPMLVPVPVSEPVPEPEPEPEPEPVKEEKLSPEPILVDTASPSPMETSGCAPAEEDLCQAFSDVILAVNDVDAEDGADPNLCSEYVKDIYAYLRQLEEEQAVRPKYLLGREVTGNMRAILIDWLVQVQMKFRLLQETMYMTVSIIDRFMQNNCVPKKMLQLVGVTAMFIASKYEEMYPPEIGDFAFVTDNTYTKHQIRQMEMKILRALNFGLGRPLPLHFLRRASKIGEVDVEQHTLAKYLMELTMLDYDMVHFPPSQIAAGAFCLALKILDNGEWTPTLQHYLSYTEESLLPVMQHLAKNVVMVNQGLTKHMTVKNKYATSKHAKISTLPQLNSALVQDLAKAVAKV

In the case of `CCC[C@@H]1O[C@@H]2C[C@@H]3[C@@H]4CCC5=CC(=O)C=C[C@@]5(C)[C@H]4[C@H](O)C[C@@]3(C)[C@@]2(C(=O)CO)O1`, the AC50 (Cytochrome P450 2C9) is reported as 25.1 µM (inconclusive).
For `CC(C)(C)C(=O)c1sc(Nc2ccccc2)nc1N`, the AC50 [1] was 23.4 µM (active).
For `Cc1cccc(NC(=S)NC(=O)Cc2ccccc2)c1C`, the IC50 [2] was 6.65 µM (active), the EC50 [3] was 9.75 µM (active) and the IC50 [4] was 13.3 µM (not active).
With `Cc1cc(=O)[nH]c(-n2nc(C)cc2NC(=O)c2cccs2)n1` the EC50 (Wee1-like protein kinase) was > 49.7 µM (inactive) and the EC50 [5] was > 49.7 µM (inactive).
`O=c1cc(-c2ccccc2O)oc2cc(O)cc(O)c12` was tested, and the AC50 (Cytochrome P450 2D6) was 25.1 µM (inconclusive).
